Data taken from patent US20150182431A1, “Compositions and Methods for Treatment of Hair with Reduced Hair Damage” (SYTHEON LTD, priority 2013, published 2015).

Settings: for Fluorescence decay of fluorescein (FL), in words: 200 μM each, CuCl2 230 μM, CaCl2 2.3 mM
Experimental: The study was conducted in accordance with the methodology disclosed in “Novel Fluorometric Assay for Hydroxyl Radical Prevention Capacity Using Fluorescein as the Probe”, B Ou, M Hampsch-Woodill, J Flanagan, EK Deemer, R Prior, D Huang, J. Agric, Food Chem: 50(10); 2772-2777, 2002.
The Fenton reaction was initiated with the mixture of Cu^2+, CaCl2 and hydrogen peroxide at alkaline condition. Hydroxyl radicals were generated by the Fenton reagent mixture, oxidative damage was monitored by fluorescein (FL), a fluorescence probe sensitive to hydroxyl radicals. The loss of fluorescence intensity was an index of oxidation. Thus, the slower the fluorescence decay, the stronger the chelation for Cu^2+.

COc1cc(C=C(C(C)=O)C(C)=O)cc(OC)c1OC [Compd. 1E, 3-(3,4,5-trimethoxybenzylidene) 2,4-pentanedione]
Chelating ability for copper, in words: excellent chelating ability for copper
Fluorescence decay of fluorescein (FL), in words: barely noted
Chelation of Cu^2+ preventing the Fenton reaction, in words (equimolar amounts (230 μM) of compound and Cu^2+): almost completely chelated
Attraction for calcium, in words (excess Ca^2+): little attraction for calcium

O=C(O)CC(NCCNC(CC(=O)O)C(=O)O)C(=O)O (stereo not shown) [EDDS, Ethylenediamine-N,N′-disuccinic acid, reference compound]
Chelating ability for copper, in words: not an effective chelating agent for copper
Fluorescence decay of fluorescein (FL), in words: barely noted

O=C(O)CN(CCN(CC(=O)O)CC(=O)O)CC(=O)O [EDTA, Ethylenediamine tetraacetic acid, reference compound]
Fluorescence decay of fluorescein (FL), in words: barely noted
